{"source": "patent US9757456B2", "about": "“Super-saturating delivery vehicles for poorly water-soluble pharmaceutical and cosmetic active ingredients and suppression of crystallization of pharmaceutical active ingredients” (Nanologica AB, priority 2010, dated 2017)", "key": {"[1]": {"conditions": "cited from earlier work"}, "[2]": {"conditions": "cited from earlier work", "remark": "listed apart in the source"}, "[3]": {"experiment": "Dissolution / kinetic release of atazanavir from nanoporous silica in simulated intestine fluid (SIF)", "type": "physicochemical", "protocol": "In order to compare the concentrations of atazanavir crystallite and atazanavir in nanoporous silica, the UV absorbance scans of atazanavir in SIF with the time are shown in FIG. 1. […] The atazanavir super-saturating solutions from the nanoporous silica. […] Particularly, the super-saturating state produced from NFM-1 could be maintain for 24 hours, and the other two could maintain for 7 hours.\nFor nanoporous material NFM-1 loaded with ATV, the dissolution rate appears to decrease with increased particle concentration as a percentage of loaded amount. […] In the case of the highest particle concentration, a supersaturation state is maintained for 4 hours after which the dissolution decreases rapidly due to crystallization of the drug in the water bath in which the dissolution study is conducted."}, "[4]": {"experiment": "Solubility and release of Retinol / Retinol 50C in water", "type": "physicochemical", "conditions": "37° C., 150 rpm, after 20 days release from a nanoporous material", "protocol": "As a mesoporous silica material, AMS-6 was selected in this example, having an Ia3d cubic pore structures, and a small pore diameter (around 4 nm average). Prior to the loading, AMS-6 was thermally treated in order to increase the hydrophobic of the inner/outer surface. 10 grams of calcined AMS-6 were placed in an oven and heated at 600° C. during 12 hours. The selected active ingredient was Retinol 50C. Retinol 50C is a formulation comprising pure Retinol and an excipient namely Polisorbate 20 used as stabilizer. […] The percentage of each component in the formulation is 50% in weight."}}}
{"smiles": "COC(=O)N[C@H](C(=O)N[C@@H](Cc1ccccc1)[C@@H](O)CN(Cc1ccc(-c2ccccn2)cc1)NC(=O)[C@@H](NC(=O)OC)C(C)(C)C)C(C)(C)C", "note": "[Atazanavir]", "values": [{"measurement": "reduction in plasma concentration (Cmin)", "setting": "[1]; co-administered with proton pump inhibitors", "result": "≤ 78", "unit": "%"}, {"measurement": "bioavailability", "setting": "[1]; in vivo", "result": "60-68%"}, {"measurement": "half-life", "setting": "[1]; in vivo", "result": 6.5, "unit": "h"}, {"measurement": "log P", "setting": "[2]", "result": 5.20}, {"measurement": "solubility in SIF (in words)", "setting": "[3]; UV absorbance over time", "result": "very low"}, {"measurement": "solubility at 4 h", "setting": "[3]; simulated intestine fluid (SIF), fassgf or other biorelevant, thermodynamic from solid, after 4 hours, higher concentration of NFM-1-ATV particles, read-out: maximum solubility", "result": 0.254, "unit": "µg/mL"}]}
{"smiles": "CC1=C(/C=C/C(C)=C/C=C/C(C)=C/CO)C(C)(C)CCC1", "note": "[Retinol]", "values": [{"measurement": "concentration of Retinol dissolved in water", "setting": "[4]", "result": 3400, "unit": "ng/mL"}]}
